Experimental data reported in ChEMBL document CHEMBL5214955, “Design, synthesis and activity evaluation of Hedgehog inhibitor Itraconazole derivatives in A549 cells” (Bioorg Med Chem Lett, 2022).
Calls of active or inactive are those of the source. No cut-off for these calls is given here.

Key:
HepG2 = assay: Antiproliferative activity against human HepG2 cells assessed as inhibition of cell proliferation incubated for 48 hrs by MTT assay; format: functional, cell-based; conditions: HepG2, 48 h
[1] = Cytotoxicity against human L02 cells assessed as inhibition of cell proliferation incubated for 48 hrs by MTT assay; format: toxicity, cell-based
A549 [2] = assay: Antiproliferative activity against human A549 cells assessed as inhibition of cell proliferation incubated for 48 hrs by MTT assay; format: functional, cell-based; conditions: A549, 48 h
[3] = Inhibition of hedgehog signalling pathway in human A549 cells assessed as reduction in Gli gene expression incubated for 24 hrs by qPCR analysis; format: cell-based; conditions: A549, 24 h
A549 [4] = assay: Induction of mitochondrial membrane potential loss in human A549 cells assessed as assessed as proportion of MMP decreased cells at 30 uM and measured after 24 hrs by JC-1 staining based flow cytometry assay (reference value: 7.50%); format: functional; parameters: scale not given: the % may be the effect or the level left
A549 [5] = assay: Induction of intracellular reactive oxygen species production in human A549 cells assessed as increase in number ROS positive cells at 30 uM and measured after 4 hrs by DCFH-DA probe based confocal microscopy; format: functional, cell-based
A549 [6] = assay: Induction of apoptosis in human A549 cells assessed as early apoptotic cells at 30 uM incubated for 24 hrs by Annexin V-FITC/PI staining based flow cytometric analysis (reference value: 0.316%); format: functional
A549 [7] = assay: Antiproliferative activity against human A549 cells assessed as inhibition of clone formation at 10 uM incubated for 1 day followed by culture in new medium for 7 days by crystal violet staining based assay relative to control; format: functional; parameters: scale not given: the % may be the effect or the level left; conditions: time 8 day
A549 [8] = assay: Induction of intracellular reactive oxygen species production in human A549 cells assessed as increase in number ROS positive cells at 30 uM and measured after 4 hrs by H2DCFH-DA staining based flow cytometric analysis; format: functional, cell-based
A549 [9] = assay: Induction of mitochondrial membrane potential loss in human A549 cells assessed as assessed as proportion of MMP decreased cells at 30 uM and measured after 4 hrs by JC-1 staining based flow cytometry assay; format: functional, cell-based
A549 [10] = assay: Induction of intracellular reactive oxygen species production in human A549 cells assessed as increase in number ROS positive cells at 30 uM and measured after 24 hrs by H2DCFH-DA staining based flow cytometric analysis (Rvb=1.10%); format: functional
A549 [11] = assay: Induction of apoptosis in human A549 cells assessed as late apoptotic cells at 30 uM incubated for 24 hrs by Annexin V-FITC/PI staining based flow cytometric analysis (reference value: 1.40%); format: functional
A549 [12] = assay: Induction of apoptosis in human A549 cells assessed as viable cells at 30 uM incubated for 24 hrs by Annexin V-FITC/PI staining based flow cytometric analysis (reference value: 98.2%); format: functional; conditions: read-out: Activity
A549 [13] = assay: Induction of apoptosis in human A549 cells assessed as necrotic cells at 30 uM incubated for 24 hrs by Annexin V-FITC/PI staining based flow cytometric analysis (reference value: 0.084%); format: functional

IC50 (HepG2) [µM]	IC50 (A549 [2]) [µM]	IC50 [3] [µM]	Compound	IC50 at 48 h [1] [µM]	Activity (A549 [4]) [%]	Activity (A549 [5])	Activity (A549 [6]) [%]	Activity (A549 [7]) [%]	Activity (A549 [8])	Activity (A549 [9])	Activity (A549 [10]) [%]	Activity (A549 [11]) [%]	viability at 30 µM (A549 [12]) [%]	Activity (A549 [13]) [%]
22.3	10.5		O=C(Nc1ccc(N2CCN(c3ccc(OC[C@@H]4CO[C@@](Cn5cncn5)(c5ccc(Cl)cc5Cl)O4)cc3)CC2)cc1)c1ccco1	> 50										
10.8	3.78	0.782	O=C(CCCc1ccccc1)Nc1ccc(N2CCN(c3ccc(OC[C@@H]4CO[C@@](Cn5cncn5)(c5ccc(Cl)cc5Cl)O4)cc3)CC2)cc1	> 50										
5.46	2.55	0.873	CCC(=O)Nc1ccc(N2CCN(c3ccc(OC[C@@H]4CO[C@@](Cn5cncn5)(c5ccc(Cl)cc5Cl)O4)cc3)CC2)cc1	> 50										
19.9	8.69	0.844	O=C(Nc1ccc(N2CCN(c3ccc(OC[C@@H]4CO[C@@](Cn5cncn5)(c5ccc(Cl)cc5Cl)O4)cc3)CC2)cc1)c1ccc(F)c(F)c1	> 50										
7.01	2.61	0.457	O=C(CCCCc1ccccc1)Nc1ccc(N2CCN(c3ccc(OC[C@@H]4CO[C@@](Cn5cncn5)(c5ccc(Cl)cc5Cl)O4)cc3)CC2)cc1	> 50										
5.34	2.06	0.089	O=C(CCc1ccccc1)Nc1ccc(N2CCN(c3ccc(OC[C@@H]4CO[C@@](Cn5cncn5)(c5ccc(Cl)cc5Cl)O4)cc3)CC2)cc1	> 50	55.4	Active	12.4	22	Active	Active	62.9	51.8	34.7	1.07
9.93	2.99		CCCC(=O)Nc1ccc(N2CCN(c3ccc(OC[C@@H]4CO[C@@](Cn5cncn5)(c5ccc(Cl)cc5Cl)O4)cc3)CC2)cc1	> 50										
7.87	3	0.125	CCC(C)n1ncn(-c2ccc(N3CCN(c4ccc(OCC5COC(Cn6cncn6)(c6ccc(Cl)cc6Cl)O5)cc4)CC3)cc2)c1=O (stereo unspecified) [ITRACONAZOLE]	> 50	36.3		7.65	34			38.3	34.6	53.9	3.84
21.1	10		O=C(CC1CCOCC1)Nc1ccc(N2CCN(c3ccc(OC[C@@H]4CO[C@@](Cn5cncn5)(c5ccc(Cl)cc5Cl)O4)cc3)CC2)cc1	> 50										
5.05	2.13	0.251	O=C(Cc1cccs1)Nc1ccc(N2CCN(c3ccc(OC[C@@H]4CO[C@@](Cn5cncn5)(c5ccc(Cl)cc5Cl)O4)cc3)CC2)cc1	> 50	44.9	Active	7.54	28	Active	Active	53	46.1	44.5	1.89
14.1	5.34		CCCCC(=O)Nc1ccc(N2CCN(c3ccc(OC[C@@H]4CO[C@@](Cn5cncn5)(c5ccc(Cl)cc5Cl)O4)cc3)CC2)cc1	> 50										
8.7	4.75		Cc1ccc(C(=O)Nc2ccc(N3CCN(c4ccc(OC[C@@H]5CO[C@@](Cn6cncn6)(c6ccc(Cl)cc6Cl)O5)cc4)CC3)cc2)o1	> 50										
10.8	6.64		O=C(Nc1ccc(N2CCN(c3ccc(OC[C@@H]4CO[C@@](Cn5cncn5)(c5ccc(Cl)cc5Cl)O4)cc3)CC2)cc1)c1cccc(F)c1	> 50										
9.77	4.33		O=C(Nc1ccc(N2CCN(c3ccc(OC[C@@H]4CO[C@@](Cn5cncn5)(c5ccc(Cl)cc5Cl)O4)cc3)CC2)cc1)c1cccs1	> 50										
